Test results from ChEMBL document CHEMBL1275366, “Design, synthesis, and development of novel guaianolide-endoperoxides as potential antimalarial agents” (J Med Chem, 2010).
Calls of active or inactive are those of the source. No cut-off for these calls is given here.

Assays:
Plasmodium falciparum [1] = test: Antiplasmodial activity against chloroquine-resistant Plasmodium falciparum W2 infected in human erythrocytes assessed as reduction in parasitaemia up to 10 uM after 48 hrs by FACS; assay type: functional, organism-based
Plasmodium falciparum [2] = test: Antiplasmodial activity against chloroquine-resistant Plasmodium falciparum W2 infected in human erythrocytes assessed as reduction in parasitaemia after 48 hrs by FACS; assay type: functional, organism-based; conditions: W2, 48 h
Vero [3] = test: Cytotoxicity against african green monkey Vero cells at => 5000 ng/mL; assay type: cell-based; conditions: chlorocebus sabaeus
Vero [4] = test: Cytotoxicity against african green monkey Vero cells at 1200 ng/mL; assay type: cell-based; conditions: chlorocebus sabaeus

Row | SMILES | IC50 (Plasmodium falciparum [2]) [nM] | other results
1 | CC(=O)OC[C@H](C)[C@]12C=C[C@](C)(OO1)[C@H]1C[C@H](O)[C@H](C)[C@H]1[C@H]2O |  | inhibition (Plasmodium falciparum [1]): inactive
2 | COc1ccc(CO[C@H]2C[C@H]3[C@@H]([C@H]2C)[C@H]2OC[C@H](C)[C@@]24CC[C@]3(C)OO4)cc1 | 7500 | 
3 | CCO[C@H]1O[C@@H]2[C@@H]3[C@@H](C)[C@@H](OCc4ccc(OC)cc4)C[C@@H]3[C@]3(C)CC[C@]2(OO3)[C@H]1C | 24 | Activity (Vero [3]): Non-toxic
4 | COc1ccc(CO[C@H]2C[C@H]3[C@@H]([C@H]2C)[C@H]2OC(O)[C@H](C)[C@@]24CC[C@]3(C)OO4)cc1 (some centres not stated) |  | inhibition (Plasmodium falciparum [1]): inactive
5 | C[C@@H]1[C@H]2[C@H]3OC[C@H](C)[C@@]34C=C[C@](C)(OO4)[C@H]2C[C@@H]1O | 570 | 
6 | C[C@@H]1CC[C@H]2[C@@H](C)C(=O)O[C@@H]3O[C@@]4(C)CC[C@@H]1[C@]32OO4 [ARTEMISININ] | 5 | 
7 | C[C@H]1C(=O)C[C@H]2[C@@H]1[C@H]1OC(=O)[C@H](C)[C@@]13CC[C@]2(C)OO3 | 270 | 
8 | COc1ccc(CO[C@H]2C[C@H]3[C@@H]([C@H]2C)[C@H]2OC[C@H](C)[C@@]24C=C[C@]3(C)OO4)cc1 | 230 | 
9 | COc1ccc(CO[C@H]2C[C@H]3[C@@H]([C@H]2C)[C@H]2OC(=O)[C@H](C)[C@@]24C=C[C@]3(C)OO4)cc1 | 290 | Activity (Vero [3]): Non-toxic
10 | CCO[C@H]1O[C@@H]2[C@@H]3[C@@H](C)[C@@H](OCc4ccc(OC)cc4)C[C@@H]3[C@]3(C)C=C[C@]2(OO3)[C@H]1C | 13 | Activity (Vero [3]): Non-toxic
11 | C[C@@H]1[C@H]2[C@@H](O)[C@@]3([C@@H](C)CO)C=C[C@](C)(OO3)[C@H]2C[C@@H]1O |  | inhibition (Plasmodium falciparum [1]): inactive
12 | COc1ccc(CO[C@H]2C[C@H]3[C@@H]([C@H]2C)[C@H]2OC(=O)[C@H](C)[C@@]24CC[C@]3(C)OO4)cc1 | 370 | Activity (Vero [3]): Non-toxic
13 | C[C@@H]1[C@H]2[C@H]3OC(=O)[C@H](C)[C@@]34CC[C@](C)(OO4)[C@H]2C[C@@H]1O | 610 | 
14 | CCO[C@@H]1O[C@@H]2[C@@H]3[C@@H](C)[C@@H](OCc4ccc(OC)cc4)C[C@@H]3[C@]3(C)C=C[C@]2(OO3)[C@H]1C | 620 | Activity (Vero [3]): Non-toxic
15 | C/C=C(/C)C(=O)O[C@H]1C(C)=C2[C@H]([C@@H]1OC(=O)CCCCCCC)[C@@](C)(OC(C)=O)C[C@H](OC(=O)CCC)[C@@]1(O)[C@H]2OC(=O)[C@@]1(C)O [THAPSIGARGIN] |  | Activity (Vero [4]): Toxic
16 | CCO[C@@H]1O[C@@H]2[C@@H]3[C@@H](C)[C@@H](OCc4ccc(OC)cc4)C[C@@H]3[C@]3(C)CC[C@]2(OO3)[C@H]1C | 3400 | 
17 | C[C@@H]1[C@H]2[C@H]3OC(=O)[C@H](C)[C@@]34C=C[C@](C)(OO4)[C@H]2C[C@@H]1O | 1050 | 
18 | COc1ccc(CO[C@H]2C[C@H]3[C@@H]([C@H]2C)[C@@H](O)[C@@]2([C@@H](C)COC(C)=O)C=C[C@]3(C)OO2)cc1 |  | inhibition (Plasmodium falciparum [1]): inactive
19 | CC(=O)OC[C@H](C)[C@]12C=C[C@](C)(OO1)[C@H]1CC(=O)[C@H](C)[C@H]1C2=O | 4600 | 
20 | COc1ccc(CO[C@H]2C[C@H]3[C@@H]([C@H]2C)[C@@H](O)[C@@]2([C@@H](C)CO)C=C[C@]3(C)OO2)cc1 | 9110 | 
21 | CC(=O)OC[C@H](C)[C@]12C=C[C@](C)(OO1)[C@H]1C[C@H](O)[C@H](C)[C@H]1C2=O |  | inhibition (Plasmodium falciparum [1]): inactive
22 | COc1ccc(CO[C@H]2C[C@H]3[C@@H]([C@H]2C)[C@H]2OC(O)[C@H](C)[C@@]24C=C[C@]3(C)OO4)cc1 (some centres not stated) | 1040 | 
